Measurements as given in patent US20170107294A1, “ANTI-CD14 ANTIBODIES AND USES THEREOF” (Nordlandssykehuset HF, priority 2014, published 2017).

Tests used:
[1] = molecular target: factor D (Homo sapiens, UniProt P00746); conditions: cited from earlier work
[2] = molecular target: human C1q (Homo sapiens, UniProt P02745+P02746+P02747); assay: ELISA for C1q binding
Protocol: Ninety-six-well plates (Nunc, Roskilde, Denmark) were coated with serial dilution of the Abs (6.0-0.09 mg/ml) and incubated overnight at 4° C. followed by washing three times with PBS/Tween (pH 7.4). The wells were blocked with 4% skimmed milk (Neogen Europe, Auchincruive, U.K.) for 1 h at room temperature and then washed in PBS/Tween (pH 6.0). Purified hFcRn-GST or pFcRn-GST (1 mg/ml) were diluted in 4% skimmed milk in PBS/Tween (pH 6.0) and preincubated with an HRP-conjugated anti-GST Ab (GE Healthcare U.K., Buckinghamshire, U.K.) diluted 1:5000 and added to the wells. The plates were incubated for 1 h at room temperature and washed with PBS/Tween (pH 6.0). Bound receptor was detected by adding 100 ml of 3,39,5,59-tetramethylbenzidine substrate (Calbiochem-Novabiochem, Nottingham, U.K.). The absorbance was measured at 450 nm using a Sunrise TECAN spectrophotometer. The assay described above was also performed using PBS/Tween (pH 7.4) in all steps. The same setup was used with GST-fused versions of hFcgRI, hFcgRIIa (allotype His131), hFcgRIIb, hFcgRIIIa (allotype Val158), and hFcgRIIIb (1 mg/ml each). In addition, a biotinylated human C1q (hC1 q; 4 mg/ml) preparation was incubated with the Abs and detected using ALP-conjugated streptavidin (GE Healthcare). Absorbance was measured at 405 nm.

Chain of factor D (P00746 26-253): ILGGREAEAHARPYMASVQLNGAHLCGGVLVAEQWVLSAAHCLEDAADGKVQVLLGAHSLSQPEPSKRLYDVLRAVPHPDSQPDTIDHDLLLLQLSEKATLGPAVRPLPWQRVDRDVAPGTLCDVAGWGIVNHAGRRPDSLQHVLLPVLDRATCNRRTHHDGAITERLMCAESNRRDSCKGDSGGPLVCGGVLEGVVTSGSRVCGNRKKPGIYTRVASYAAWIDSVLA
Chain of human C1q (P02745 23-245): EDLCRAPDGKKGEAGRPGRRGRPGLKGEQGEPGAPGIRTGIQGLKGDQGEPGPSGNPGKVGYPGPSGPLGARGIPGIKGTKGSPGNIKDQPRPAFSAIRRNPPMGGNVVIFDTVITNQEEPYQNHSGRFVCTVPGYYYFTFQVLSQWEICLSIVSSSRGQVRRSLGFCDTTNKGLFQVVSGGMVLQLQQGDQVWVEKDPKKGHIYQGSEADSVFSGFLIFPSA
Chain of human C1q (P02746 28-253): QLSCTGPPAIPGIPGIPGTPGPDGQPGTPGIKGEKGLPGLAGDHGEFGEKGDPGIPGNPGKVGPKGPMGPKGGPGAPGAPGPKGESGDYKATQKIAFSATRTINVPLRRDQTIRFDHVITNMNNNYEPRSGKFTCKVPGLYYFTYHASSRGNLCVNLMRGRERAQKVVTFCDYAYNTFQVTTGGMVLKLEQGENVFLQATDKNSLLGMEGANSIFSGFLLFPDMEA
Chain of human C1q (P02747 29-245): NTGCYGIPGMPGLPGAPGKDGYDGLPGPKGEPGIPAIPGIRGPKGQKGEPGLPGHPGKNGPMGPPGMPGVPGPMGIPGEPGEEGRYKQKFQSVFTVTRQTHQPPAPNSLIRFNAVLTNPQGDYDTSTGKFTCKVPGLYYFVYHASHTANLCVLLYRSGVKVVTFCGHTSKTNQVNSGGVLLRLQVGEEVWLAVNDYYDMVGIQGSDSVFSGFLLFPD

binding to C1q [2] | Compound | IC50 [1] [nM]
 | N=C(N)c1cc2ccc(OC(=O)c3cccs3)cc2s1 [BCX-1470] | 96
did so in a dose-dependent manner | rituximab: humanized anti-CD20 IgG1 Ab from Roche, control for ELISA-based binding studies | 
